Literature values, collected in patent publication US8128958B2, “Sustained release pharmaceutical composition” (Astellas Pharma Inc., priority 2003, dated 2012).
Structures can show the parent of a compound that is named as a salt.

How the values were obtained:
[1] = not given; remark: listed apart in the source

day on which plasma concentration profiles reached the steady state (repeatedly administered per os for seven days): 4 days
frequency of orthostatic syncope, headache and sleepiness ([1]; package insert, psychoneural area): less than 0.1%
Structure (SMILES): CCOc1ccccc1OCCN[C@H](C)Cc1ccc(OC)c(S(N)(=O)=O)c1 [tamsulosin hydrochloride, (R)(−)-5-[2-[[2-(o-ethoxyphenoxy)ethyl]-amino]propyl]-2-methoxybenzenesulfonamide]
Cmax and AUC versus dose (0.1 to 0.6 mg orally, healthy adult volunteers): increased almost in proportion to the dose administered
adverse reactions (including abnormal clinical data) presumably related to the agent ([1]; 104 cases among 4724 cases, research in use upon approval and post marketing surveillance in Japan): 2.2%
frequency of hypotension, postural hypotension, blood pressure, tachycardia and palpitation ([1]; package insert, circulatory area): less than 0.1%
